# In paper PMC11909975, “Spectroscopic, docking, antiproliferative, and anticancer activity of novel metal derivatives of phenylacetohydrazide Schiff base on different human cancer cell lines” (BMC Chemistry, 2025):
# What was measured:
# Type in all cases: cell-based
# [1] = test system: HSF normal human skin fibroblast; experiment: MTT cytotoxicity assay on normal skin fibroblasts; details: for SI (selectivity index), HSF: IC50 normal cells (HSF) / IC50 HSF
# Description: (§1) Cells (HeLa, cervical cancer cells; MDA-MB-231, breast cancer cells; A375, skin cancer cells; A549, lung cancer cells; and HSF, normal skin fibroblasts cells) were supplied from Nawah Scientific (Cairo, Egypt). The cells were grown in DMEM medium supplemented with 10% fetal bovine serum (Gibco, Life Technologies Inc., UK) with 1% penicillin/streptomycin solution (Gibco). Cells were maintained at 37°C with 5% CO2.
# (§2) MTT in vitro cytotoxic assay assesses the metabolic activity of viable cells through the reduction of the water-soluble yellow dye by mitochondrial succinate dehydrogenase into the insoluble purple formazan. In brief, cyanochalcone derivatives were dissolved in 100% dimethyl sulphoxide (DMSO, Serva, Heidelberg, Germany) and incubated with cells at the desired concentrations (0, 6.25, 12.5, 25, 50, 100, and 200 μM) for 48 h with the corresponding vehicle as control. 5-Florouracil (5FU) was used as a positive control. Following incubation, old media were discarded and MTT solution (50 μl, 0.5 mg/ml) was added. After 4 h of incubation, the insoluble formed formazan was dissolved in DMSO (100 μl) with a shaking plate for 15 min in a dark place. The absorbance readings were taken at 570 nm by an ELISA reader. Relative cell viability was calculated as a percentage of control untreated cells. The assay was done in four replicates. The dose–response curve was plotted using GraphPad Prism 8, and the values of IC50 (half-maximal inhibitory concentration) were determined using non-linear regression analysis. Finally, the selectivity index was calculated by dividing the IC50 for normal cells by the IC50 of cancer cells.
# (§3) To evaluate the potential usefulness of the Schiff base ligand (H2L) and the reported complexes (Fe, Zn, Cd, Pt) as antitumor agents, five human cell lines (normal Cells; HSF, human colorectal cancer cell line; HCT119, liver carcinoma cell line; HEPG2, human triple-negative breast cancer; MDA, human lung cancer cell line; A549) were treated by the compounds and compared with cis-platin activity as a standard. The IC50 values (concentration that produces 50% inhibition of cell growth) and selectivity index of the H2L ligand, the metal complexes, and cis-platin were tabulated in Table 4.
# [2] = test system: HCT119 (Human Colorectal cancer cell line); experiment: MTT cytotoxicity assay on colorectal cancer cells; details: for SI (selectivity index), HCT119: IC50 normal cells (HSF) / IC50 HCT119
# Description: as §1, §2, §3
# [3] = test system: HepG2 (Human Liver cancer cell line); experiment: MTT cytotoxicity assay on liver cancer cells; details: for SI (selectivity index), HEPG2: IC50 normal cells (HSF) / IC50 HEPG2
# Description: as §1, §2, §3
# [4] = test system: MDA (Human Breast cancer cell line); experiment: MTT cytotoxicity assay on triple-negative breast cancer cells; details: for SI (selectivity index), MDA: IC50 normal cells (HSF) / IC50 MDA
# Description: as §1, §2, §3
# [5] = test system: A549 (Human Lung cancer cell line); experiment: MTT cytotoxicity assay on lung cancer cells; details: for SI (selectivity index), A549: IC50 normal cells (HSF) / IC50 A549
# Description: as §1, §2, §3
# [6] = HSF normal skin fibroblasts, MTT, 48 h
# [7] = HCT119 colorectal cancer cells (HCT116 in abstract), MTT, 48 h
# [8] = HEPG2 liver carcinoma cells, MTT, 48 h
# [9] = MDA triple-negative breast cancer cells, MTT, 48 h
# [10] = A549 lung cancer cells, MTT, 48 h
Structure (SMILES),"IC50 (HSF) [1, 6] [µg/mL]","SI (selectivity index), HSF [1]","IC50 (HCT119) [2, 7] [µg/mL]","SI (selectivity index), HCT119 [2]","IC50 (HEPG2) [3, 8] [µg/mL]","SI (selectivity index), HEPG2 [3]","SI (selectivity index), MDA [4]","IC50 (MDA) [4, 9] [µg/mL]","IC50 (A549) [5, 10] [µg/mL]","SI (selectivity index), A549 [5]","IC50 ([1]; Homo sapiens, Skin fibroblast, HSF normal skin fibroblasts, MTT, 48 h) [µg/mL]","IC50 ([2]; Homo sapiens, HCT-116, HCT119 colorectal cancer cells (HCT116 in abstract), MTT, 48 h) [µg/mL]","IC50 ([3]; Homo sapiens, HEPG2 liver carcinoma cells, MTT, 48 h) [µg/mL]","IC50 ([4]; Homo sapiens, MDA triple-negative breast cancer cells, MTT, 48 h) [µg/mL]","IC50 ([5]; Homo sapiens, A549 lung cancer cells, MTT, 48 h) [µg/mL]"
CC(=O)[O-].CC(=O)[O-].[Cd+2].[Cd+2].[O-]c1ccc2ccccc2c1C=NN=C(O)Cc1ccccc1.[O-]c1ccc2ccccc2c1C=NN=C(O)Cc1ccccc1 [Cd complex],5.24,1.00,0.329,15.93,4.16,1.26,0.20,25.7,56.23,0.09,,,,,
O=C(Cc1ccccc1)NN=Cc1c([O-])ccc2ccccc12.O=C(Cc1ccccc1)NN=Cc1c([O-])ccc2ccccc12.[Fe+2] [Fe complex],15.84,1.00,64.01,0.25,40.73,0.39,2.09,7.58,95.49,0.17,,,,,
C1=[N+]2N=C(Cc3ccccc3)[O][Zn-2]23[O+](c2ccc4ccccc4c21)[Zn-2]12[O]C(Cc4ccccc4)=N[N+]1=Cc1c(ccc4ccccc14)[O+]32.CC(=O)O.CC(=O)O (stereo not shown) [Zn complex],,1.00,,,32.35,,,89.12,,,,,,,
"O=C(Cc1ccccc1)NN=Cc1c(O)ccc2ccccc12 [H2L, Nʹ-((2-hydroxynaphthalen-1-yl)methylene)-2-phenylacetohydrazide]",,1.00,,0.32,,2.88,3.63,,,3.63,91.2,285,31.6,25.1,25.1
"N.N.[Cl][Pt][Cl] [Cisplatin, reference compound]",11.07,1.00,2.25,4.92,3.42,3.24,3.45,3.21,2.73,4.05,,,,,
